US20240360082A1, “SUBSTITUTED PYRIDONE COMPOUNDS USEFUL TO TREAT ORTH[…]” (priority 2021, published 2024)
pIC50: −log10 of the molar value.

Target: influenza A virus minigenome (PB2, PB1, PA, NP proteins) (UniProt P04665)
Type: cell-based
Settings: read-out: RNP_ Hubei B IC50

influenza A virus minigenome (PB2, PB1, PA, NP proteins), sequence (P04665 whole entry): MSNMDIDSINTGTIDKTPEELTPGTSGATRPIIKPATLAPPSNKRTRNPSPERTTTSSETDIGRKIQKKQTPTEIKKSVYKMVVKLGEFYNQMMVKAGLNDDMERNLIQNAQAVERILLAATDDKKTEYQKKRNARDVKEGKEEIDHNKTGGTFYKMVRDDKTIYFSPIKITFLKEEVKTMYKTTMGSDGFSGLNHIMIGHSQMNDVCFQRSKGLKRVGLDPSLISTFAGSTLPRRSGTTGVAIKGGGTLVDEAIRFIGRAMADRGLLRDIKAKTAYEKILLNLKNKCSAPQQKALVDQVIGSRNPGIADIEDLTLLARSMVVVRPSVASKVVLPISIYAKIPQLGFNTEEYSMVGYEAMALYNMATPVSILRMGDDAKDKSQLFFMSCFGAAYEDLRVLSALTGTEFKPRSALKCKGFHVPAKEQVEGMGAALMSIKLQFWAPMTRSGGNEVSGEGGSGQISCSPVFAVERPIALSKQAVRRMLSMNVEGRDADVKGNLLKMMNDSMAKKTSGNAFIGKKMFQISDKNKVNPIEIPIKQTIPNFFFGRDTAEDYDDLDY

With COC1(C2COCC(COc3ccc(-c4cc(C(N)=O)c(=O)[nH]c4C(F)(F)F)cc3)O2)CC1 (single isomer, unassigned) [Example 353, 5-(4-((6-(1-methoxycyclopropyl)-1,4-dioxan-2-yl)methoxy)phenyl)-2-oxo-6-(trifluoromethyl)-1,2-dihydropyridine-3-carboxamide] as the compound, how does the pIC50 read?
The pIC50 was 5.00 to 5.30.

How did the pIC50 turn out when NC(=O)c1cc(-c2ccc(OCC3COCC(COCC4CC4)O3)cc2)c(C(F)(F)F)[nH]c1=O (single isomer, unassigned) [Example 363, 5-(4-((6-((cyclopropylmethoxy)methyl)-1,4-dioxan-2-yl)methoxy)phenyl)-2-oxo-6-(trifluoromethyl)-1,2-dihydropyridine-3-carboxamide] was run?
Its pIC50 is 5.00 to 5.30.

With Cn1ncc2c1COCC2COc1ccc(-c2cc(C(N)=O)c(=O)[nH]c2C(F)(F)F)cc1 (single isomer, unassigned) [Example 290, 5-(4-((1-methyl-1,4,5,7-tetrahydropyrano[3,4-c]pyrazol-4-yl)methoxy)phenyl)-2-oxo-6-(trifluoromethyl)-1,2-dihydropyridine-3-carboxamide] as the compound, how does the pIC50 read?
The pIC50 was 5.00 to 5.30.

How did the pIC50 turn out when NC(=O)c1cc(-c2ccc(OCC3CCCO3)cc2)c(C(F)(F)F)[nH]c1=O (centres unmarked) [Example 232, 2-oxo-5-(4-((tetrahydrofuran-2-yl)methoxy)phenyl)-6-(trifluoromethyl)-1,2-dihydropyridine-3-carboxamide] was run?
The pIC50 was 4.60 to 5.00.

How did the pIC50 turn out when CC(C)(O)C1COCC(COc2ccc(-c3cc(C(N)=O)c(=O)[nH]c3C(F)(F)F)cc2)O1 (single isomer, unassigned) [Example 354, 5-(4-((6-(2-hydroxypropan-2-yl)-1,4-dioxan-2-yl)methoxy)phenyl)-2-oxo-6-(trifluoromethyl)-1,2-dihydropyridine-3-carboxamide] was run?
The pIC50 was 5.00 to 5.30.

How did the pIC50 turn out when COC[C@]1(C)COC[C@@H](COc2ccc(-c3cc(C(N)=O)c(=O)[nH]c3C(F)(F)F)cc2)O1 [Example 406, 5-(4-(((2S,6R)-6-(methoxymethyl)-6-methyl-1,4-dioxan-2-yl)methoxy)phenyl)-2-oxo-6-(trifluoromethyl)-1,2-dihydropyridine-3-carboxamide] was run?
Its pIC50 is 5.00 to 5.30.

How did the pIC50 turn out when CC(C)(C)OC(=O)N1C[C@@H](F)C[C@H]1COc1ccc(-c2cc(C(N)=O)c(=O)[nH]c2C(F)(F)F)cc1 [Example 306, tert-butyl (2S,4S)-2-((4-(5-carbamoyl-6-oxo-2-(trifluoromethyl)-1,6-dihydropyridin-3-yl)phenoxy)methyl)-4-fluoropyrrolidine-1-carboxylate] was run?
The pIC50 was 5.00 to 5.30.

With COC[C@H]1COC[C@@H](COc2ccc(-c3cc(C(N)=O)c(=O)[nH]c3C(F)(F)F)cc2)O1 [Example 398, 5-(4-(((2S,6S)-6-(methoxymethyl)-1,4-dioxan-2-yl)methoxy)phenyl)-2-oxo-6-(trifluoromethyl)-1,2-dihydropyridine-3-carboxamide] as the compound, how does the pIC50 read?
Its pIC50 is 5.00 to 5.30.

How did the pIC50 turn out when NC(=O)c1cc(-c2ccc(OCC3COCCO3)c(F)c2)c(C(F)(F)F)[nH]c1=O (centres unmarked) [Example 239, 5-(4-((1,4-dioxan-2-yl)methoxy)-3-fluorophenyl)-2-oxo-6-(trifluoromethyl)-1,2-dihydropyridine-3-carboxamide] was run?
Its pIC50 is 4.60 to 5.00.

With NC(=O)c1cc(-c2ccc(OCc3cnco3)cc2)c(C(F)(F)F)[nH]c1=O [Example 267, 5-(4-(oxazol-5-ylmethoxy)phenyl)-2-oxo-6-(trifluoromethyl)-1,2-dihydropyridine-3-carboxamide] as the compound, how does the pIC50 read?
The pIC50 was 4.30 to 4.60.

With CC(C)[C@H]1COCC(COc2ccc(-c3cc(C(N)=O)c(=O)[nH]c3C(F)(F)F)cc2)N1C (stereo partly drawn) [Example 211, 5-(4-(((5S)-5-isopropyl-4-methylmorpholin-3-yl)methoxy)phenyl)-2-oxo-6-(trifluoromethyl)-1,2-dihydropyridine-3-carboxamide] as the compound, how does the pIC50 read?
The pIC50 was 5.30 to 6.00.

CC(C)(C)OC(=O)N1C[C@H](F)C[C@H]1COc1ccc(-c2cc(C(N)=O)c(=O)[nH]c2C(F)(F)F)cc1 [Example 305, Tert-butyl (2S,4R)-2-((4-(5-carbamoyl-6-oxo-2-(trifluoromethyl)-1,6-dihydropyridin-3-yl)phenoxy)methyl)-4-fluoropyrrolidine-1-carboxylate] was tested. Which pIC50 did it give?
Its pIC50 is 4.30 to 4.60.

With NC(=O)c1cc(-c2ccc(OCC3COC(CF)CO3)cc2)c(C(F)(F)F)[nH]c1=O (single isomer, unassigned) [Example 342, 5-(4-((5-(fluoromethyl)-1,4-dioxan-2-yl)methoxy)phenyl)-2-oxo-6-(trifluoromethyl)-1,2-dihydropyridine-3-carboxamide] as the compound, how does the pIC50 read?
The pIC50 was 5.00 to 5.30.

With C[C@]1(CS(C)(=O)=O)COC[C@@H](COc2ccc(-c3cc(C(N)=O)c(=O)[nH]c3C(F)(F)F)cc2)O1 [Example 412, 5-(4-(((2S,6R)-6-methyl-6-((methylsulfonyl)methyl)-1,4-dioxan-2-yl)methoxy)phenyl)-2-oxo-6-(trifluoromethyl)-1,2-dihydropyridine-3-carboxamide] as the compound, how does the pIC50 read?
The pIC50 was 5.00 to 5.30.

CN1[C@@H](COc2ccc(-c3cc(C(N)=O)c(=O)[nH]c3C(F)(F)F)cc2)COC[C@@H]1C1CC1 [Example 210, 5-(4-(((3R,5S)-5-cyclopropyl-4-methylmorpholin-3-yl)methoxy)phenyl)-2-oxo-6-(trifluoromethyl)-1,2-dihydropyridine-3-carboxamide] was tested. Which pIC50 did it give?
Its pIC50 is 5.00 to 5.30.

With COC[C@@]1(C)COC[C@H](COc2ccc(-c3cc(C(N)=O)c(=O)[nH]c3C(F)(F)F)cc2)O1 [Example 408, 5-(4-(((2R,6S)-6-(methoxymethyl)-6-methyl-1,4-dioxan-2-yl)methoxy)phenyl)-2-oxo-6-(trifluoromethyl)-1,2-dihydropyridine-3-carboxamide] as the compound, how does the pIC50 read?
Its pIC50 is 5.00 to 5.30.

How did the pIC50 turn out when CC1CN(C(=O)OC(C)(C)C)CC1COc1ccc(-c2cc(C(N)=O)c(=O)[nH]c2C(F)(F)F)cc1 (centres unmarked) [Example 303, Tert-butyl 3-((4-(5-carbamoyl-6-oxo-2-(trifluoromethyl)-1,6-dihydropyridin-3-yl)phenoxy)methyl)-4-methylpyrrolidine-1-carboxylate] was run?
The pIC50 was 4.60 to 5.00.

NC(=O)c1cc(-c2ccc(OCC3CCCCO3)cc2)c(C(F)(F)F)[nH]c1=O (centres unmarked) [Example 236, 2-oxo-5-(4-((tetrahydro-2H-pyran-2-yl)methoxy)phenyl)-6-(trifluoromethyl)-1,2-dihydropyridine-3-carboxamide] was tested. Which pIC50 did it give?
The pIC50 was 5.00 to 5.30.

How did the pIC50 turn out when CN1C(=O)OCC1COc1ccc(-c2cc(C(N)=O)c(=O)[nH]c2C(F)(F)F)cc1 (centres unmarked) [Example 235, 5-(4-((3-methyl-2-oxooxazolidin-4-yl)methoxy)phenyl)-2-oxo-6-(trifluoromethyl)-1,2-dihydropyridine-3-carboxamide] was run?
Its pIC50 is 4.30 to 4.60.

[2H]C([2H])([2H])OC[C@@]1(C)COC[C@@H](COc2ccc(-c3cc(C(N)=O)c(=O)[nH]c3C(F)(F)F)cc2)O1 [Example 410, 5-(4-(((2S,6S)-6-((methoxy-d3)methyl)-6-methyl-1,4-dioxan-2-yl)methoxy)phenyl)-2-oxo-6-(trifluoromethyl)-1,2-dihydropyridine-3-carboxamide] was tested. Which pIC50 did it give?
The pIC50 was 5.00 to 5.30.

Same assay, conditions: read-out: RNP_Hubei B

How did the pIC50 turn out when NC(=O)c1cc(-c2ccc(COc3cccnc3)cc2)c(C(F)(F)F)[nH]c1=O [Example 177, 2-oxo-5-(4-((pyridin-3-yloxy)methyl)phenyl)-6-(trifluoromethyl)-1,2-dihydropyridine-3-carboxamide] was run?
The pIC50 was 4.30 to 4.60.

How did the pIC50 turn out when NC(=O)c1cc(-c2ccc(OCc3cccc4nonc34)cc2)c(C(F)(F)F)[nH]c1=O [Example 74, 5-(4-(benzo[c][1,2,5]oxadiazol-4-ylmethoxy)phenyl)-2-oxo-6-(trifluoromethyl)-1,2-dihydropyridine-3-carboxamide] was run?
Its pIC50 is 4.60 to 5.00.

How did the pIC50 turn out when NC(=O)c1cc(-c2ccc(CN3CCOCC3)c(F)c2)c(C(F)(F)F)[nH]c1=O [Example 36, 5-(3-fluoro-4-(morpholinomethyl)phenyl)-2-oxo-6-(trifluoromethyl)-1,2-dihydropyridine-3-carboxamide] was run?
Its pIC50 is 4.60 to 5.00.

With COc1ccc(COc2ccc(-c3cc(C(N)=O)c(=O)[nH]c3C(F)(F)F)cc2)cc1 [Example 59, 5-(4-((4-methoxybenzyl)oxy)phenyl)-2-oxo-6-(trifluoromethyl)-1,2-dihydropyridine-3-carboxamide] as the compound, how does the pIC50 read?
The pIC50 was 5.00 to 5.30.

With CS(=O)(=O)c1cccc(COc2ccc(-c3cc(C(N)=O)c(=O)[nH]c3C(F)(F)F)cc2)c1 [Example 75, 5-(4-((3-(methylsulfonyl)benzyl)oxy)phenyl)-2-oxo-6-(trifluoromethyl)-1,2-dihydropyridine-3-carboxamide] as the compound, how does the pIC50 read?
The pIC50 was 4.30 to 4.60.

How did the pIC50 turn out when N#Cc1ccccc1COc1ccc(-c2cc(C(N)=O)c(=O)[nH]c2C(F)(F)F)cc1 [Example 89, 5-(4-((2-cyanobenzyl)oxy)phenyl)-2-oxo-6-(trifluoromethyl)-1,2-dihydropyridine-3-carboxamide] was run?
The pIC50 was 4.30 to 4.60.

NC(=O)c1cc(-c2ccc(OC(c3cccnc3)C3CC3)cc2)c(C(F)(F)F)[nH]c1=O (centres unmarked) [Example 184, 5-(4-(cyclopropyl(pyridin-3-yl)methoxy)phenyl)-2-oxo-6-(trifluoromethyl)-1,2-dihydropyridine-3-carboxamide] was tested. Which pIC50 did it give?
Its pIC50 is 4.60 to 5.00.

How did the pIC50 turn out when NC(=O)c1cc(-c2ccc(CN3CCCCC3)cc2)c(C(F)(F)F)[nH]c1=O [Example 44, 2-oxo-5-(4-(piperidin-1-ylmethyl)phenyl)-6-(trifluoromethyl)-1,2-dihydropyridine-3-carboxamide] was run?
Its pIC50 is 4.30 to 4.60.

NC(=O)c1cc(-c2ccc(OCc3ccncc3)cc2)c(C(F)(F)F)[nH]c1=O [Example 70, 2-oxo-5-(4-(pyridin-4-ylmethoxy)phenyl)-6-(trifluoromethyl)-1,2-dihydropyridine-3-carboxamide] was tested. Which pIC50 did it give?
Its pIC50 is 4.30 to 4.60.

With CN(C)C(=O)c1ccc(COc2ccc(-c3cc(C(N)=O)c(=O)[nH]c3C(F)(F)F)cc2)cc1 [Example 60, 5-(4-((4-(dimethylcarbamoyl)benzyl)oxy)phenyl)-2-oxo-6-(trifluoromethyl)-1,2-dihydropyridine-3-carboxamide] as the compound, how does the pIC50 read?
Its pIC50 is 4.30 to 4.60.

NC(=O)c1cc(-c2ccc(OCc3ccc(Cl)nc3)cc2)c(C(F)(F)F)[nH]c1=O [Example 176, 5-(4-((6-chloropyridin-3-yl)methoxy)phenyl)-2-oxo-6-(trifluoromethyl)-1,2-dihydropyridine-3-carboxamide] was tested. Which pIC50 did it give?
The pIC50 was 4.30 to 4.60.

How did the pIC50 turn out when NC(=O)c1cc(-c2ccc(C(c3cnco3)N3CCOCC3)cc2)c(C(F)(F)F)[nH]c1=O (centres unmarked) [Example 48, 5-(4-(morpholino(oxazol-5-yl)methyl)phenyl)-2-oxo-6-(trifluoromethyl)-1,2-dihydropyridine-3-carboxamide] was run?
The pIC50 was 4.30 to 4.60.
